From US20230372382A1, “USE OF ADENOSINE DIPHOSPHATE RIBOSE FOR ADJUVANT THERAPY WITH RADIATION AND/OR ANTI-CANCER TREATMENT” (PearlsInMires Co., Ltd., priority 2021, published 2023)

Legend:
[1] = test system: Pancreatic cancer (AsPC-1) cells; assay: Cell death by combination treatment with anti-cancer drug (MTT); type: cell-based; conditions: Homo sapiens, ASPC1, 24 h; read-out: cancer cells survived (cell viability)
[2] = test system: Lung cancer (H1975) cells; assay: Xenograft model, combination with anti-cancer drug, tumor volume; type: in vivo, BALB/c nude mice; conditions: osimertinib 1 mg/kg oral twice a week alone
Method: (§1) Brain (U-87MG), lung (H1975), pancreatic (AsPC-1), or liver (Hep G2) cells (1×10^7 cells) were inoculated into 5-week-old BALB/c nude mice on the back flank, respectively. Then, when tumors were grown to a volume of approximately 150 mm^3, the mice were divided into the control group (control), an anti-cancer drug alone treatment group, and a combination treatment group. […] The tumor size was measured every 6 days using a digital caliper, and the results of changes in tumor volume were compared by the group.
Lung cancer (H1975) cells (1×10^7) were inoculated into 5-week-old BALB/c nude mice on the back flank, and the mice were divided into three groups: the control group (Control), single oral administration of 1 mg/kg of osimertinib, and combination administration of osimertinib+10 mg/kg of ADP-ribose. When the tumors were grown to a volume of approximately 150 mm^3, osimertinib was administered orally twice a week, and ADP-ribose at 10 mg/kg was injected subcutaneously 3 times a week. The tumor size was measured using a digital caliper, and the results of changes in tumor volume were compared by the group.

[3] = test system: Lung cancer (H1975) cells; assay: Cell death by combination treatment with anti-cancer drug (MTT); type: cell-based; conditions: Homo sapiens, NCI-H1975; H1975, osimertinib 1 nM alone, 24 hours; read-out: cancer cells survived (cell viability)
[4] = test system: Brain cancer (U-87MG) cells; assay: Xenograft model, combination with anti-cancer drug, tumor volume; type: in vivo, BALB/c nude mice; conditions: U-87MG xenograft, Avastin 25 mg/kg intraperitoneal twice a week alone
Method: as §1
Brain cancer (U-87MG) cells (1×10^7) were inoculated into 5-week-old BALB/c nude mice on the back flank, and the mice were divided into three groups: the control group (Control), single intraperitoneal administration of 25 mg/kg of Avastin (ingredient name: bevacizumab), and combination administration of Avastin+10 mg/kg of ADP-ribose. When the tumors were grown to a volume of approximately 150 mm^3, Avastin was administered intraperitoneally twice a week, and ADP-ribose at 10 mg/kg was injected subcutaneously 3 times a week. The tumor size was measured using a digital caliper, and the results of changes in tumor volume were compared by the group.

[5] = test system: Liver cancer (Hep G2) cells; assay: as above; type: in vivo, BALB/c nude mice; conditions: sorafenib 10 mg/kg oral 5 times a week alone
Method: as §1
Liver cancer (Hep G2) cells (1×10^7) were inoculated into 5-week-old BALB/c nude mice on the back flank, and the mice were divided into three groups: the control group (Control), single oral administration of 10 mg/kg of sorafenib, and combination administration of sorafenib+10 mg/kg of ADP-ribose. When the tumors were grown to a volume of approximately 150 mm^3, sorafenib was administered orally 5 times a week, and ADP-ribose at 10 mg/kg was injected subcutaneously 3 times a week. The tumor size was measured using a digital caliper, and the results of changes in tumor volume were compared by the group.

[6] = test system: Liver cancer (Hep G2) cells; assay: Cell death by combination treatment with anti-cancer drug (MTT); conditions: Homo sapiens, HepG2, 24 h, read-out: cancer cells survived (cell viability)
[7] = test system: Colon cancer (HCT116) cells; assay: as above; type: cell-based; conditions: Homo sapiens, HCT-116; HCT116, 5-FU 10 μM alone, 24 hours; read-out: cancer cells survived (cell viability)

## Nc1ccn([C@@H]2O[C@H](CO)[C@@H](O)C2(F)F)c(=O)n1 [gemcitabine, reference compound]
[1]
  viability at 1 µM: ~54%

## C=CC(=O)Nc1cc(Nc2nccc(-c3cn(C)c4ccccc34)n2)c(OC)cc1N(C)CCN(C)C [osimertinib, reference compound]
[2]
  final tumor volume lower than that of the control group: about 17%
[2]; control about 2265.5
  final tumor volume: about 1881.9 mm^3
[3]
  viability at 0.001 µM: ~50%

## bevacizumab: anti-VEGF monoclonal antibody; Avastin (ingredient name: bevacizumab) [reference compound]
[4]
  final tumor volume lower than that of the control group: about 37%
[4]; control about 2527.1
  final tumor volume: about 1598.9 mm^3

## CNC(=O)c1cc(Oc2ccc(NC(=O)Nc3ccc(Cl)c(C(F)(F)F)c3)cc2)ccn1 [sorafenib, reference compound]
[5]
  final tumor volume lower than that of the control group: about 20%
[5]; control about 2322.4
  final tumor volume: about 1849.8 mm^3
[6]
  viability at 1 µM: ~49%

## O=c1[nH]cc(F)c(=O)[nH]1 [5-FU, 5-fluorouracil, reference compound]
[7]
  viability at 10 µM: ~51%
